According to patent US20190336496A1, “SELECTIVE BCL-2 INHIBITORS IN COMBINATION WITH AN ANTI-PD-1 OR AN ANTI-PD-L1 ANTIBODY FOR THE TREATMENT OF CANCERS” (AbbVie Inc., priority 2018, published 2019):

Experiments:
[1] = tested on: mouse lymphocytes; assay: In vivo sensitivity of lymphocytes (flow cytometry)
Description: FIG. 2: In vivo sensitivity of lymphocytes to Compound (I). […] Descriptions of each sub-section are as follows: (A) In vivo sensitivity of lymphocytes following one week of treatment with Compound (I). Naïve CB6F1 mice were treated daily with Compound (I) (50/mg/kg) for one week. Lymph nodes were collected, and immune cells were quantified by flow cytometry; (B) In vivo sensitivity of splenocytes following one week of treatment with Compound (I). Naïve C57BL/6 mice were treated daily with Compound (I) (50/mg/kg) for one week. Spleens were collected and immune cells were quantified by flow cytometry. Mouse splenocytes, including B-cells, CD8+ T-cells, and CD4+ T-cells, were sensitive to in vivo treatment with Compound (I), as described in Example 1; (C) In vivo sensitivity of T-cell subsets in splenocytes following one week of treatment with Compound (I). CD4+ naïve T-cells (TN) and CD8+ central memory T-cells in the spleen from C57BL/6 mice were slightly sensitive to in vivo Compound (I) treatment while the proportion of CD4+ and CD8+ effector memory T-cells (TEM) was increasing; and (D) In vivo sensitivity of T-cell subsets in the blood following one week of treatment with Compound (I). The proportion of CD4+ and CD8+ effector memory T cells (TEM) increased in the blood from C57BL/6 mice following in vivo Compound (I) treatment.
Cancer Immunol Res. 5; 29-41 (2017)). Any reduction in checkpoint inhibitor-mediated tumor growth inhibition or response rates caused by the addition of venetoclax would indicate potential antagonism. The panel was composed of syngeneic models of solid tumors: CT26, MC38 (both colorectal carcinoma) and EMT6 (breast cancer). […] Likewise, only modest anti-tumor activity could be observed in these models with venetoclax alone, dosed daily at 50 mg/kg for 14 days (FIG. 3, FIG. 6, FIGS. 12A, 12B, 12C, and 12D). […] Rather, it enhanced their efficacy in certain cases.

[2] = tested on: human PBMCs; assay: In vitro sensitivity of human PBMCs; assay type: cell-based
Description: Human PBMCs were thawed and cultured overnight in 30 U/mL of interleukin-2 (IL-2). Cells were harvested, washed once with complete media and counted. PBMCs were plated at a density of 5×10^5 cells per well in a 48-well plate with 30 U/mL IL-2. For stimulation of T-cells, cells were plated in anti-CD3-coated wells (2.5 μg/mL; ThermoFisher cat. #16-0037-85, clone OKT3) and soluble anti-CD28 was added (1 μg/mL; ThermoFisher cat. #16-0289-85, clone CD28.2). Cells were treated with increasing concentrations of venetoclax for 24 hours (dimethyl sulfoxide (DMSO) was used as control). Cells were harvested, stained and subjected to flow cytometry analysis with a BD LSRII instrument (BD Biosciences)
However, when PBMCs were stimulated with anti-CD3 and anti-CD28 for 72 hours before treating with venetoclax, the T-cells were not sensitive to venetoclax. (FIG. 7B). While the proportion of naïve T-cells (CD4^+CD62L^+CD45RO^− and […]) decreased with increasing venetoclax concentrations, the proportion of CD4^+ central memory (TCM; CD62L^+CD45RO^+) and CD8^+ terminally differentiated effector memory (TEMRA; CD8^+CD62L^−CD45RO^−) and effector memory cells (TEM; CD8^+CD62L^−CD45RO^+) increased relative to the number of surviving T-cells (FIGS. 8A and 8C). […] In separate experiments, human PBMCs were thawed, rested overnight and then treated with venetoclax for 24 hours. Similar results were observed when increasing the number of tested samples (n=9 donors), and refining the markers for the different T-cell subsets: naïve T-cells (TN; CD62L+CD45RA+), central memory (TCM; CD62L+CD45RA−), effector memory cells (TEM; CD62L−CD45RA−) and terminally differentiated effector memory (TEMRA; CD62L−CD45RA+) (FIGS. 8E, 8F, 8G). Venetoclax decreases the proportion of naïve T-cells, but not memory cells, and specifically induces an increase in effector memory T-cells. It can therefore be seen that, while naïve T- and B-cells were sensitive to venetoclax, memory T-cells were less sensitive to venetoclax. While TCM cells home to lymph nodes and efficiently stimulate dendritic cells, TEM and TEMRA cells home to tissues, comprised of antigen-experienced cells and are ready to mediate rapid effector and cytotoxic functions necessary to kill the tumor.

[3] = tested on: CMV-positive CD8 T cells; assay: CMV specific CD8 T cell response; assay type: cell-based, human; conditions: overnight (12-14 hours) incubation
Text: The cytomegalovirus (CMV) specific assay was used to evaluate the effects of venetoclax on antigen-experienced CD8 T cells. This assay used CMV) peptide pp65 ([…], SEQ ID NO: 53) to stimulate CMV-positive CD8 T cells, and MART ([…]) peptide as a negative control. Human CMV-positive CD8 T cells and CMV peptide pp65 were purchased from Astarte Biologics and MART peptide as purchased from Genscript. 2×10^5 CMV-positive CD8 T cells were stimulated with 2×10^5 CMV pp65 peptide or MART peptide loaded T2 cells (2.5 μg/ml of peptide) with brefeldin-A in RPMI media supplemented with 10% fetal bovine serum (FBS). For measuring the IFNγ secretion in the supernatant, CMV+ CD8 T cells were activated with CMV pp65 peptide or MART peptide loaded T2 cells and incubated with venetoclax without brefeldin-A in RPMI media supplemented with 10% fetal bovine serum (FBS). […] Cells were analyzed using an LSRFortessa™ X-20 instrument (BD Biosciences). The secreted IFNγ in supernatant was measured by ELISA.
CMV+ CD8 T cells were activated by CMV pp65 peptide ([…]) loaded on T2 cells and the effect of venetoclax on the function of these cells was assessed by measuring intra-cellular and secreted IFNγ (flow cytometry and ELISA as described above). […]

[4] = unstimulated, increasing concentrations

## CC1(C)CCC(CN2CCN(c3ccc(C(=O)NS(=O)(=O)c4ccc(NCC5CCOCC5)c([N+](=O)[O-])c4)c(Oc4cnc5[nH]ccc5c4)c3)CC2)=C(c2ccc(Cl)cc2)C1 [Compound (I), venetoclax]
[1]; daily 50/mg/kg for one week, flow cytometry
  sensitivity of lymphocytes in lymph node, spleen and blood (B-cells, CD8+ T-cells, CD4+ T-cells): sensitive
[1]; mice treated daily at 50 mg/kg for one week
  murine T-cell populations in vivo: clear reductions
[1]; spleen and blood of C57BL/6 mice, one week of treatment
  proportion of memory cells, specifically effector memory cells: increase
[2]; CD3/CD28 stimulated conditions
  proportion of the T-cell subsets: did not affect
[2]; PBMCs stimulated with anti-CD3 and anti-CD28 for 72 hours before treatment
  sensitivity of T-cells: not sensitive
[2]; unstimulated PBMCs cultured 72 hours, then 24 hours treatment
  number of B-cells and T-cells (CD4+ and CD8+): dose-dependent decrease
[2]; [4]
  proportion of CD4+ TCM, CD8+ TEMRA and CD8+ TEM cells relative to surviving T-cells: increased
  proportion of naïve T-cells: decreased
[3]
  number of CD8 T cells: reduced
